Experimental findings from patent US7094781B2, “Sulfamides and their use as endothelin receptor antagonists” (Actelion Pharmaceuticals Ltd., priority 2000, dated 2006) are described below.

Molecules are shown by their SMILES. Where two headings read alike, the source gives them in different places.

What is called IC50 is the concentration needed to halve the response being measured.

For test [1], the target named is T1, human recombinant ETB receptor (Homo sapiens, UniProt P24530).
T1 construct: expressed in transfected cells; host or cells: CHO cells (microsomal membranes)
T1 sequence (P24530 27-442): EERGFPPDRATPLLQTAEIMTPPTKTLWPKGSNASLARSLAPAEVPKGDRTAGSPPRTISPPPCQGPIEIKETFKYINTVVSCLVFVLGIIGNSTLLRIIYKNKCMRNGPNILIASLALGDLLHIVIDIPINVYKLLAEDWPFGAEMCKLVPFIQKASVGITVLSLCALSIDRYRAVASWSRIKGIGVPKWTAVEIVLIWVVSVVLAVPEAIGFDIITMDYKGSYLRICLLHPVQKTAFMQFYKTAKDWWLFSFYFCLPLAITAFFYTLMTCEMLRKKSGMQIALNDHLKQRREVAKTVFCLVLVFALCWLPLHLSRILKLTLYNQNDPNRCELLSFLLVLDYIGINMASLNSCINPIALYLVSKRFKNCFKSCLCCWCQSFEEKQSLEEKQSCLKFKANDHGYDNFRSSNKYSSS
The experiment in a line: Inhibition of [125I]ET-1 binding to membranes from CHO cells carrying human ETB receptors.

Test [2] has as its target T2, ETA receptors (rat aortic rings) (Rattus norvegicus, UniProt P26684).
T2 construct: The thoracic aorta or trachea were excised, dissected and cut in 3–5 mm rings; from tissue; host or cells: thoracic aorta rings of adult Wistar rats, endothelium removed
T2 sequence (P26684 21-426): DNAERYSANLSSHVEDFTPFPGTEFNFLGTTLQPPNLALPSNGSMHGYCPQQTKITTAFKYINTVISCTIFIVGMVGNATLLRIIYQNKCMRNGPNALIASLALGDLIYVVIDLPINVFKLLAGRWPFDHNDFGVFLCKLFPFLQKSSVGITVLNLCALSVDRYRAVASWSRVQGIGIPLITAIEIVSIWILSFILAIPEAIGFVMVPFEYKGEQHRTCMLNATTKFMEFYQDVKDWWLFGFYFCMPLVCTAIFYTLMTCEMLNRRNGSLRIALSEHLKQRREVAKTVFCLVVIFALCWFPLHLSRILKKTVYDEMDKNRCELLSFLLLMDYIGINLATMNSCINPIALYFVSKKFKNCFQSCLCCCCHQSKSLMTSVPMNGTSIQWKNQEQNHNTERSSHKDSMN
The test can be described thus: Inhibition of endothelin-1-induced contraction on isolated rat aortic rings.
Method: 2) Inhibition of Endothelin-induced Contractions on Isolated Rat Aortic Rings (ETA Receptors) and Rat Tracheal Rings (ETB Receptors):
The functional inhibitory potency of the endothelin antagonists was assessed by their inhibition of the contraction induced by endothelin-1 on rat aortic rings (ETA receptors) and of the contraction induced by sarafotoxin S6c on rat tracheal rings (ETB receptors). Adult Wistar rats were anesthetized and exsanguinated. The thoracic aorta or trachea were excised, dissected and cut in 3–5 mm rings. The endothelium/epithelium was removed by gentle rubbing of the intimal surface. […] The rings were connected to force transducers and isometric tension was recorded (EMKA Technologies SA, Paris, France). The rings were stretched to a resting tension of 3 g (aorta) or 2 g (trachea). […] The functional inhibitory potency of the test compound was assessed by calculating the concentration ratio, i.e. the shift to the right of the EC50 induced by different concentrations of test compound. EC50 is the concentration of endothelin needed to get a half-maximal contraction, pA2 is the negative logarithm of the antagonist concentration which induces a two-fold shift in the EC50 value.

The target in test [3] is T3, human recombinant ETA receptor (Homo sapiens, UniProt P25101).
T3 construct: expressed in transfected cells; host or cells: CHO cells (microsomal membranes)
T3 sequence (P25101 21-427): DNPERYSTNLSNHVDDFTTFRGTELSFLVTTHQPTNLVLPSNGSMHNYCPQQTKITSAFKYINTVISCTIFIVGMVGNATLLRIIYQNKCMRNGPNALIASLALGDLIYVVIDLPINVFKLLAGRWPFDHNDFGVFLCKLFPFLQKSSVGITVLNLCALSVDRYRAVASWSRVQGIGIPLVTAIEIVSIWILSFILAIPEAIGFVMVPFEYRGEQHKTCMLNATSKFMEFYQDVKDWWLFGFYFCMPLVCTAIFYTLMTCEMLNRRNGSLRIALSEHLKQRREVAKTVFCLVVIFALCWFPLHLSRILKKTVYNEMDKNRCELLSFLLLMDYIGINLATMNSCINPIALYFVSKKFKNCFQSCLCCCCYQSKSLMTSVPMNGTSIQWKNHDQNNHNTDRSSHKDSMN
The experiment in a line: Inhibition of [125I]ET-1 binding to membranes from CHO cells carrying human ETA receptors.

Where [4] appears, read: read-out: pA2 value ETA (converted).

On to `COc1ccccc1Oc1c(NS(=O)(=O)Nc2ccc(C(C)C)cc2)nc(-c2ccncc2)nc1OCCOc1ncc(Br)cn1` [Example 5, 4-i-propyl-phenyl sulfamic acid-[6-[2-(5-bromo-pyrimidin-2-yloxy)-ethoxy]-5-(o-methoxy-phenoxy)-2-(4-pyridyl)-pyrimidin-4-yl]-amide], for which the figures for the IC50 in test [1] and in test [3] were 1280 nM and 28 nM, respectively. In addition, the Kb in test [2] (setting [4]) is 224 nM.

Consider `O=S(=O)(NCc1ccccc1)Nc1ncnc(OCCOc2ncc(Br)cn2)c1-c1ccc(Cl)cc1` [Example 14, benzyl sulfamic acid-[6-[2-(5-bromo-pyrimidin-2-yloxy)-ethoxy]-5-(4-chlorophenyl)-4-pyrimidinyl]-amide], for which the Kb in test [2] (setting [4]) is 3.98 nM. Besides, the half-inhibitory concentration (IC50) in test [3] stood at 5.6 nM.

As for `O=S(=O)(NCc1cccs1)Nc1ncnc(OCCOc2ncc(Br)cn2)c1-c1ccc(Cl)cc1` [Example 20], the IC50 worked out at 1720 nM in test [1] and 4.9 nM in test [3]. Besides, the Kb in test [2] was 61.7 nM.

On to `Cc1ccc(-c2c(NS(=O)(=O)NCc3ccccc3)nc(-c3ccncc3)nc2OCCOc2ncc(Br)cn2)cc1` [Example 32], for which the IC50 was found to be 864 nM in test [1] and 3.5 nM in test [3]. The Kb in test [2] (setting [4]) is 1.78 nM.

As for `COc1ccccc1Oc1c(NS(=O)(=O)NCc2ccccc2)nc(-c2ncccn2)nc1OCCOc1ncc(Br)cn1` [Example 37], the Kb in test [2] (setting [4]) was 14.8 nM. For the same compound, in test [3], the concentration for half-maximal inhibition (IC50) came to 16 nM.

Take `COc1ccccc1Oc1c(NS(=O)(=O)NCc2ccccc2)nc(-c2ncccn2)nc1OCCOC(=O)Nc1ccccn1` [Example 41]: the IC50 in test [1] turned out to be 41.6 nM; in test [3], 3.2 nM. Also, in test [2], the Kb is 4.27 nM.

For `COc1ccc(CNS(=O)(=O)Nc2nc(-c3ncccn3)nc(OC)c2Oc2ccccc2OC)cc1` [Example 51], the figures for the IC50 in test [1] and in test [3] were 306 nM and 13.4 nM, respectively. In test [2] (setting [4]), the Kb was 282 nM.

Turning to `O=S(=O)(NCc1ccccc1)Nc1ncnc(OCCOc2ncc(Br)cn2)c1-c1ccc(Br)cc1` [Example 100], the Kb in test [2] (setting [4]) is 3.63 nM. For the same compound, the IC50 in test [3] was found to be 0.76 nM.

For the compound `Cc1ccc(-c2c(NS(=O)(=O)NCC3CC3)ncnc2OCCOc2ncc(Br)cn2)cc1` [Example 119], the concentration for half-maximal inhibition (IC50) is greater than 1000 nM in test [1] and 4.2 nM in test [3]. Besides, the Kb in test [2] is 41.7 nM.

Regarding `COc1ccccc1Oc1c(NS(=O)(=O)NCC2CCCCC2)nc(-c2ncccn2)nc1OCCOc1ncc(Br)cn1` [Example 133], the IC50 in test [1] worked out at 212 nM; in test [3] it was 1.7 nM. Further, in test [2], the Kb was 19.1 nM.

In the case of `COc1ccc(CNS(=O)(=O)Nc2nc(-c3ccncc3)nc(OC)c2Oc2ccccc2OC)cc1` [Example 161], the results for the IC50 in test [1] and in test [3] were greater than 1000 nM and 6.2 nM, respectively. The same compound had a Kb in test [2] of 513 nM.

Turning to `COc1cnc(OCCOc2nc(-c3ncccn3)nc(NS(=O)(=O)N(C)Cc3ccccc3)c2Oc2ccccc2OC)nc1` [Example 188], the IC50 was 290 nM in test [1] and 11 nM in test [3].

As for `CN(Cc1ccccc1)S(=O)(=O)Nc1ncnc(OCCOc2ncc(Br)cn2)c1-c1ccc(Cl)cc1` [Example 193], the IC50 in test [1] was greater than 1000 nM; in test [3] it was 3.6 nM.

Turning to `COc1cnc(OCCOc2ncnc(NS(=O)(=O)N(C)Cc3ccccc3)c2-c2ccc(Cl)cc2)nc1` [Example 194], the IC50 in test [1] is greater than 1000 nM; in test [3] it was 9.5 nM.

For `CSc1cnc(OCCOc2ncnc(NS(=O)(=O)NC3CC3)c2-c2ccc(Br)cc2)nc1` [Example 197], the IC50 in test [1] was determined as 418 nM; in test [3], 1.16 nM.

Take `COc1ccccc1Oc1c(NS(=O)(=O)NC2CC2)nc(-c2ncccn2)nc1OCCOc1ncc(Br)cn1` [Example 199]: the IC50 came out at 205 nM in test [1] and 12 nM in test [3].

Regarding `COc1cnc(OCCOc2nc(-c3ncccn3)nc(NS(=O)(=O)NC3CC3)c2Oc2ccccc2OC)nc1` [Example 200], the IC50 in test [1] turned out to be 310 nM; in test [3], 23 nM.

With `COc1ccccc1Oc1c(NS(=O)(=O)NC2CC2)nc(-c2ccncc2)nc1OCCOc1ncc(Br)cn1` [Example 202], the IC50 was found to be 351 nM in test [1] and 9.6 nM in test [3].

Consider `COc1ccccc1Oc1c(NS(=O)(=O)NCc2ccccc2)nc(S(C)(=O)=O)nc1OCCO` [Example 204, Benzylsulfamic acid [6-(2-hydroxy-ethoxy)-2-methanesulfonyl-5-(2-methoxy-phenoxy)-pyrimidin-4-yl]-amide], for which the values for the half-maximal inhibitory concentration (IC50) in test [1] and in test [3] were 1050 nM and 390 nM, respectively.

Regarding `COc1ccccc1Oc1c(NS(=O)(=O)NCc2ccccc2)nc(N2CCOCC2)nc1OCCO` [Example 205, benzylsulfamic acid [6-(2-hydroxy-ethoxy)-5-(2-methoxy-phenoxy)-2-morpholin-4-yl-pyrimidin-4-yl]-amide], the results for the IC50 in test [1] and in test [3] were 623 nM and 135 nM, respectively.

`COc1ccccc1Oc1c(NS(=O)(=O)NCc2ccccc2)nc(-c2ccnc(-c3nnn[nH]3)c2)nc1OC` [Example 207, benzylsulfamic acid [6-methoxy-5-(2-methoxy-phenoxy)-2-[2-(1H-tetrazol-5-yl)-pyridin-4-yl]-pyrimidin-4-yl]-amide]: the 50% inhibitory concentration (IC50) in test [1] was greater than 1000 nM; in test [3], 17 nM.

For `COc1ccccc1Oc1c(NS(=O)(=O)NCc2ccccc2)nc(-c2ccnc(-c3nnn[nH]3)c2)nc1OCCO` [Example 208, Benzylsulfamic acid [6-(2-hydroxy-ethoxy)-5-(2-methoxy-phenoxy)-2-[2-(1H-tetrazol-5-yl)-pyridin-4-yl]-pyrimidin-4-yl]-amide], the values for the IC50 in test [1] and in test [3] were 342 nM and 17 nM, respectively.

As for `C=CCOc1nc(-c2ccnc(-c3nnn[nH]3)c2)nc(NS(=O)(=O)NCc2ccccc2)c1Oc1ccccc1OC` [Example 209, Benzylsulfamic acid [6-allyloxy-5-(2-methoxy-phenoxy)-2-[2-(1H-tetrazol-5-yl)-pyridin-4-yl]-pyrimidin-4-yl]-amide], the concentration for half-maximal inhibition (IC50) was greater than 1000 nM in test [1] and 733 nM in test [3].

Turning to `C#CCOc1nc(-c2ccnc(-c3nnn[nH]3)c2)nc(NS(=O)(=O)NCc2ccccc2)c1Oc1ccccc1OC` [Example 210, Benzylsulfamic acid [5-(2-methoxy-phenoxy)-6-prop-2-ynyloxy-2-[2-(1H-tetrazol-5-yl)-pyridin-4-yl]-pyrimidin-4-yl]-amide], the figures for the IC50 in test [1] and in test [3] were 936 nM and 23 nM, respectively.

`COc1ccc(Cl)c(Oc2c(NS(=O)(=O)NCc3ccccc3)ncnc2OCCO)c1` [Example 211, Benzylsulfamic acid [5-(2-chloro-5-methoxy-phenoxy)-6-(2-hydroxy-ethoxy)-pyrimidin-4-yl]-amide]: the IC50 in test [1] turned out to be 722 nM; in test [3], 290 nM.

Turning to `COc1ccc(Cl)c(Oc2c(NS(=O)(=O)NCc3ccccc3)ncnc2OCCOc2ncc(SC)cn2)c1` [Example 213, Benzylsulfamic acid [6-[2-(5-methylsulfanyl-pyrimidin-2-yloxy)-ethoxy]-5-(2-chloro-5-methoxy-phenoxy)-pyrimidin-4-yl]-amide], the values for the IC50 in test [1] and in test [3] were 347 nM and 1.32 nM, respectively.

Consider `COc1ccc(Cl)c(Oc2c(NS(=O)(=O)NCc3ccccc3)ncnc2OCCOc2ncc(S(C)(=O)=O)cn2)c1` [Example 214, Benzylsulfamic acid [5-(2-chloro-5-methoxy-phenoxy)-6-[2-(5-methanesulfonyl-pyrimidin-2-yloxy)-ethoxy]-pyrimidin-4-yl]-amide], for which the IC50 in test [1] came to 241 nM; in test [3] it was 0.76 nM.
